Laboratory results reported in publication PMC8053501 (Diabetes, Metabolic Syndrome and Obesity: Targets and …, 2021).
“Also recorded” adds a separate entry of the source. Where two headings read alike, the source gives them in different places. One block for each molecule: values may come before it.

Columns and labels:
[1] = tested on: diabetes mellitus patients; assay: Acute kidney injury; assay type: in vivo, human; conditions: for Association with AKI, Unadjusted (95% CI) / Association with AKI, Adjusted (95% CI): metformin as reference; for Association with AKI, Adjusted (95% CI): multivariate; for Events During the 90 days (AKI): primary endpoint, first 90 days, patients above 55 years; for Total endpoint (AKI events): primary plus secondary endpoint; for Events at secondary end (AKI): secondary endpoint, after 90 days of hospital admission; for Total Percent (incidence rate of AKI at the end of the study): share of the 4966 total outcomes
in vivo = conditions: male, ICR, mouse, po
[2] = for Drug concentration, time course: normal mice, oral gavage, 3mg/kg
[3] = Endpoint Diagnosis with 1047 Outcome
[4] = Secondary Diagnosis with 3919 Outcomes
[5] = 3 mg/kg, t1/2, mouse, oral gavage, Kidney
[6] = 3 mg/kg, t1/2, mouse, oral gavage, Liver
[7] = 3 mg/kg, t1/2, mouse, oral gavage, Plasma

Tmax (in vivo): 1 h
Tmax (in vivo; 3 mg/kg): 1 h
Cmax (in vivo; 3 mg/kg, oral gavage, Kidney): 1740 ng/mL
Cmax (in vivo; 3 mg/kg, oral gavage, Liver): 1150 ng/mL
Cmax (in vivo; 3 mg/kg, oral gavage, Plasma): 412 ng/mL
half-life (in vivo; [5]): 2.1 h
half-life (in vivo; [6]): 2.2 h
half-life (in vivo; [7]): 1.8 h
Drug concentration, time course ([2]; Kidney, 0h): 0
Drug concentration, time course ([2]; Kidney, 3h): 1800
Drug concentration, time course ([2]; Kidney, 6h): 1200
Drug concentration, time course ([2]; Kidney, 9h): 550
Drug concentration, time course ([2]; Kidney, 12h): 100
Drug concentration, time course ([2]; Kidney, 15h): 0
Drug concentration, time course ([2]; Kidney, 18h): 0
Drug concentration, time course ([2]; Kidney, 21h): 0
Drug concentration, time course ([2]; Kidney, 24h): 0
Drug concentration, time course ([2]; Liver, 0h): 0
Drug concentration, time course ([2]; Liver, 3h): 1100
Drug concentration, time course ([2]; Liver, 6h): 850
Drug concentration, time course ([2]; Liver, 9h): 400
Drug concentration, time course ([2]; Liver, 12h): 50
Drug concentration, time course ([2]; Liver, 15h): 0
Drug concentration, time course ([2]; Liver, 18h): 0
Drug concentration, time course ([2]; Liver, 21h): 0
Drug concentration, time course ([2]; Liver, 24h): 0
Drug concentration, time course ([2]; Plasma, 0h): 0
Drug concentration, time course ([2]; Plasma, 3h): 500
Drug concentration, time course ([2]; Plasma, 6h): 450
Drug concentration, time course ([2]; Plasma, 9h): 200
Drug concentration, time course ([2]; Plasma, 12h): 0
Drug concentration, time course ([2]; Plasma, 15h): 0
Drug concentration, time course ([2]; Plasma, 18h): 0
Drug concentration, time course ([2]; Plasma, 21h): 0
Drug concentration, time course ([2]; Plasma, 24h): 0
SMILES: OC[C@H]1O[C@@H](c2ccc(Cl)c(Cc3ccc(O[C@H]4CCOC4)cc3)c2)[C@H](O)[C@@H](O)[C@@H]1O [Jardiance]
Association with AKI, Unadjusted (95% CI) [1, 3]: 0.87 (0.69–1.12)
Association with AKI, Adjusted (95% CI) [1, 3]: 0.76 (0.58–1.18)
Association with AKI, Unadjusted (95% CI) [1, 4]: 0.83 (0.68–1.14)
Association with AKI, Adjusted (95% CI) [1, 4]: 0.85 (0.67–1.18)
Events During the 90 days (AKI) [1]: 57
Total endpoint (AKI events) [1]: 277
Events at secondary end (AKI) [1]: 220
Total Percent (incidence rate of AKI at the end of the study) [1]: 5.58%

Tmax (in vivo): 1 h
Tmax (in vivo; 3 mg/kg): 1 h
Cmax (in vivo; 3 mg/kg, oral gavage, Kidney): 4510 ng/mL
Cmax (in vivo; 3 mg/kg, oral gavage, Liver): 3980 ng/mL
Cmax (in vivo; 3 mg/kg, oral gavage, Plasma): 945 ng/mL
half-life (in vivo; 3 mg/kg, t1/2): 1.6 h
Drug concentration, time course ([2]; Kidney, 0h): 9860
Drug concentration, time course ([2]; Kidney, 3h): 7320
Drug concentration, time course ([2]; Kidney, 6h): 5670
Drug concentration, time course ([2]; Kidney, 9h): 2340
Drug concentration, time course ([2]; Kidney, 12h): 730
Drug concentration, time course ([2]; Kidney, 15h): 60
Drug concentration, time course ([2]; Kidney, 18h): 0
Drug concentration, time course ([2]; Kidney, 21h): 0
Drug concentration, time course ([2]; Kidney, 24h): 0
Drug concentration, time course ([2]; Liver, 0h): 12,110
Drug concentration, time course ([2]; Liver, 3h): 8700
Drug concentration, time course ([2]; Liver, 6h): 5470
Drug concentration, time course ([2]; Liver, 9h): 1350
Drug concentration, time course ([2]; Liver, 12h): 200
Drug concentration, time course ([2]; Liver, 15h): 30
Drug concentration, time course ([2]; Liver, 18h): 0
Drug concentration, time course ([2]; Liver, 21h): 0
Drug concentration, time course ([2]; Liver, 24h): 0
Drug concentration, time course ([2]; Plasma, 0h): 370
Drug concentration, time course ([2]; Plasma, 3h): 80
Drug concentration, time course ([2]; Plasma, 6h): 45
Drug concentration, time course ([2]; Plasma, 9h): 0
Drug concentration, time course ([2]; Plasma, 12h): 0
Drug concentration, time course ([2]; Plasma, 15h): 0
Drug concentration, time course ([2]; Plasma, 18h): 0
Drug concentration, time course ([2]; Plasma, 21h): 0
Drug concentration, time course ([2]; Plasma, 24h): 0
SMILES: CC1(C)S[C@@H]2[C@H](NC(=O)[C@H](N)c3ccc(O)cc3)C(=O)N2[C@H]1C(=O)O [Amoxicillin, amoxicillin]
Association with AKI, Unadjusted (95% CI) [1, 3]: 1.73 (1.16–1.85)
Association with AKI, Adjusted (95% CI) [1, 3]: 1.36 (1.06–1.54)
Association with AKI, Unadjusted (95% CI) [1, 4]: 1.17 (0.88–1.43)
Association with AKI, Adjusted (95% CI) [1, 4]: 1.34 (1.07–1.82)
Events During the 90 days (AKI) [1]: 48
Total endpoint (AKI events) [1]: 293
Events at secondary end (AKI) [1]: 245
Total Percent (incidence rate of AKI at the end of the study) [1]: 5.9%

Tmax (in vivo): 0.5 h
Tmax (in vivo; 3 mg/kg): 0.5 h
Cmax (in vivo; 3 mg/kg, oral gavage, Kidney): 4140 ng/mL
Cmax (in vivo; 3 mg/kg, oral gavage, Liver): 3040 ng/mL
Cmax (in vivo; 3 mg/kg, oral gavage, Plasma): 975 ng/mL
half-life (in vivo; [5]): 2.3 h
half-life (in vivo; [6]): 1.5 h
half-life (in vivo; [7]): 1.6 h
Drug concentration, time course ([2]; Kidney, 0h): 0
Drug concentration, time course ([2]; Kidney, 3h): 16,700
Drug concentration, time course ([2]; Kidney, 6h): 14,500
Drug concentration, time course ([2]; Kidney, 9h): 8000
Drug concentration, time course ([2]; Kidney, 12h): 4500
Drug concentration, time course ([2]; Kidney, 15h): 3000
Drug concentration, time course ([2]; Kidney, 18h): 1500
Drug concentration, time course ([2]; Kidney, 21h): 1000
Drug concentration, time course ([2]; Kidney, 24h): 850
Drug concentration, time course ([2]; Liver, 0h): 0
Drug concentration, time course ([2]; Liver, 3h): 7500
Drug concentration, time course ([2]; Liver, 6h): 6000
Drug concentration, time course ([2]; Liver, 9h): 1200
Drug concentration, time course ([2]; Liver, 12h): 300
Drug concentration, time course ([2]; Liver, 15h): 50
Drug concentration, time course ([2]; Liver, 18h): 0
Drug concentration, time course ([2]; Liver, 21h): 0
Drug concentration, time course ([2]; Liver, 24h): 0
Drug concentration, time course ([2]; Plasma, 0h): 0
Drug concentration, time course ([2]; Plasma, 3h): 300
Drug concentration, time course ([2]; Plasma, 6h): 250
Drug concentration, time course ([2]; Plasma, 9h): 30
Drug concentration, time course ([2]; Plasma, 12h): 0
Drug concentration, time course ([2]; Plasma, 15h): 0
Drug concentration, time course ([2]; Plasma, 18h): 0
Drug concentration, time course ([2]; Plasma, 21h): 0
Drug concentration, time course ([2]; Plasma, 24h): 0
SMILES: OC[C@H]1O[C@@H](c2ccc(F)c(Cc3cc4ccccc4s3)c2)[C@H](O)[C@@H](O)[C@@H]1O [Ipragliflozin, ipragliflozin]
Association with AKI, Unadjusted (95% CI) [1, 3]: 0.78 (0.61–1.08)
Association with AKI, Adjusted (95% CI) [1, 3]: 0.86 (0.69–1.31)
Association with AKI, Unadjusted (95% CI) [1, 4]: 0.84 (0.69–1.16)
Association with AKI, Adjusted (95% CI) [1, 4]: 0.95 (0.62–1.45)
Events During the 90 days (AKI) [1]: 58
Total endpoint (AKI events) [1]: 269
Events at secondary end (AKI) [1]: 211
Total Percent (incidence rate of AKI at the end of the study) [1]: 5.42%

Tmax (in vivo; 3 mg/kg): 1 h
Cmax (in vivo; 3 mg/kg, oral gavage, Kidney): 10300 ng/mL
Cmax (in vivo; 3 mg/kg, oral gavage, Liver): 9650 ng/mL
Cmax (in vivo; 3 mg/kg, oral gavage, Plasma): 1170 ng/mL
half-life (in vivo; [5]): 3.8 h
half-life (in vivo; [6]): 3.1 h
half-life (in vivo; [7]): 2.7 h
Tmax determined from the drug concentration in kidney and plasma (and liver) ([2]; mouse, tissue not separated): 1 h
Drug concentration, time course ([2]; Kidney, 0h): 0
Drug concentration, time course ([2]; Kidney, 3h): 8240
Drug concentration, time course ([2]; Kidney, 6h): 5200
Drug concentration, time course ([2]; Kidney, 9h): 3880
Drug concentration, time course ([2]; Kidney, 12h): 700
Drug concentration, time course ([2]; Kidney, 15h): 250
Drug concentration, time course ([2]; Kidney, 18h): 0
Drug concentration, time course ([2]; Kidney, 21h): 0
Drug concentration, time course ([2]; Kidney, 24h): 0
Drug concentration, time course ([2]; Liver, 0h): 0
Drug concentration, time course ([2]; Liver, 3h): 10,300
Drug concentration, time course ([2]; Liver, 6h): 8700
Drug concentration, time course ([2]; Liver, 9h): 5400
Drug concentration, time course ([2]; Liver, 12h): 1200
Drug concentration, time course ([2]; Liver, 15h): 150
Drug concentration, time course ([2]; Liver, 18h): 0
Drug concentration, time course ([2]; Liver, 21h): 0
Drug concentration, time course ([2]; Liver, 24h): 0
Drug concentration, time course ([2]; Plasma, 0h): 0
Drug concentration, time course ([2]; Plasma, 3h): 300
Drug concentration, time course ([2]; Plasma, 6h): 100
Drug concentration, time course ([2]; Plasma, 9h): 50
Drug concentration, time course ([2]; Plasma, 12h): 0
Drug concentration, time course ([2]; Plasma, 15h): 0
Drug concentration, time course ([2]; Plasma, 18h): 0
Drug concentration, time course ([2]; Plasma, 21h): 0
Drug concentration, time course ([2]; Plasma, 24h): 0
SMILES: COc1ccc2c(c1)c(CC(=O)O)c(C)n2C(=O)c1ccc(Cl)cc1 [Indomethacin, indomethacin]
Association with AKI, Unadjusted (95% CI) [1, 3]: 2.81 (2.32–2.94)
Association with AKI, Adjusted (95% CI) [1, 3]: 2.29 (2.05–2.65)
Association with AKI, Unadjusted (95% CI) [1, 4]: 2.45(2.09–2.54)
Association with AKI, Adjusted (95% CI) [1, 4]: 2.63 (2.41–2.72)
Association with AKI compared to control drug metformin, in words ([1]; multivariate analysis): increased rate of AKI; also recorded: higher risk for AKI
Events During the 90 days (AKI) [1]: 106
Total endpoint (AKI events) [1]: 497
Events at secondary end (AKI) [1]: 391
Total Percent (incidence rate of AKI at the end of the study) [1]: 10.01%
